Assay results as given in PubChem BioAssay AID1259407 (Chemical Carcinogenesis Research Information System (CCRIS), 2018).
Calls of active or inactive are those of the source. No rule for the calls is given here.

Tested on: CCRIS mutagenicity, Ames/micronucleus/aberration tests
Test: CCRIS mutagenicity studies
[1] = Test System: AMES SALMONELLA TYPHIMURIUM, Strain/Indicator: TA98, Metabolic Activation: NONE, Method: PREINCUBATION
[2] = Test System: AMES SALMONELLA TYPHIMURIUM, Strain/Indicator: TA100, Metabolic Activation: NONE, Method: PREINCUBATION
[3] = Test System: AMES SALMONELLA TYPHIMURIUM, Strain/Indicator: TA98, Metabolic Activation: NONE, Method: STANDARD PLATE
[4] = Test System: AMES SALMONELLA TYPHIMURIUM, Strain/Indicator: TA100, Metabolic Activation: NONE, Method: STANDARD PLATE
[5] = Test System: AMES SALMONELLA TYPHIMURIUM, Strain/Indicator: TA100, Metabolic Activation: RAT, LIVER, S-9, AROCLOR 1254, Method: STANDARD PLATE

## CN
Test System: AMES SALMONELLA TYPHIMURIUM, Strain/Indicator: TA98, Metabolic Activation: NONE, Method: GAS EXPOSURE
  mutagenic call: inactive; negative
[1]
  mutagenic call: inactive; negative
Test System: AMES SALMONELLA TYPHIMURIUM, Strain/Indicator: TA98, Metabolic Activation: RAT, LIVER, S-9, AROCLOR 1254 (5,15 OR 30%), Method: PREINCUBATION
  mutagenic call: inactive; negative
Test System: AMES SALMONELLA TYPHIMURIUM, Strain/Indicator: TA98, Metabolic Activation: RAT, LIVER, S-9, SODIUM PHENOBARBITAL AND 5,6-BENZOFLAVONE, Method: GAS EXPOSURE
  mutagenic call: inactive; negative
Test System: AMES SALMONELLA TYPHIMURIUM, Strain/Indicator: TA100, Metabolic Activation: NONE, Method: GAS EXPOSURE
  mutagenic call: inactive; negative
[2]
  mutagenic call: inactive; negative
Test System: AMES SALMONELLA TYPHIMURIUM, Strain/Indicator: TA100, Metabolic Activation: RAT, LIVER, S-9, AROCLOR 1254 (5,15 OR 30%), Method: PREINCUBATION
  mutagenic call: inactive; negative
Test System: AMES SALMONELLA TYPHIMURIUM, Strain/Indicator: TA100, Metabolic Activation: RAT, LIVER, S-9, SODIUM PHENOBARBITAL AND 5,6-BENZOFLAVONE, Method: GAS EXPOSURE
  mutagenic call: inactive; negative
Test System: AMES SALMONELLA TYPHIMURIUM, Strain/Indicator: TA104, Metabolic Activation: NONE, Method: PREINCUBATION
  mutagenic call: inactive; negative
Test System: AMES SALMONELLA TYPHIMURIUM, Strain/Indicator: TA104, Metabolic Activation: RAT, LIVER, S-9, AROCLOR 1254 (5,15 OR 30%), Method: PREINCUBATION
  mutagenic call: inactive; negative
Test System: AMES SALMONELLA TYPHIMURIUM, Strain/Indicator: TA1535, Metabolic Activation: NONE, Method: GAS EXPOSURE
  mutagenic call: inactive; negative
Test System: AMES SALMONELLA TYPHIMURIUM, Strain/Indicator: TA1535, Metabolic Activation: RAT, LIVER, S-9, SODIUM PHENOBARBITAL AND 5,6-BENZOFLAVONE, Method: GAS EXPOSURE
  mutagenic call: inactive; negative
Test System: AMES SALMONELLA TYPHIMURIUM, Strain/Indicator: TA1537, Metabolic Activation: NONE, Method: GAS EXPOSURE
  mutagenic call: inactive; negative
Test System: AMES SALMONELLA TYPHIMURIUM, Strain/Indicator: TA1537, Metabolic Activation: RAT, LIVER, S-9, SODIUM PHENOBARBITAL AND 5,6-BENZOFLAVONE, Method: GAS EXPOSURE
  mutagenic call: inactive; negative
Test System: E. COLI, Strain/Indicator: WP2UVRA, Metabolic Activation: NONE, Method: GAS EXPOSURE
  mutagenic call: inactive; negative
Test System: E. COLI, Strain/Indicator: WP2UVRA, Metabolic Activation: RAT, LIVER, S-9, SODIUM PHENOBARBITAL AND 5,6-BENZOFLAVONE, Method: GAS EXPOSURE
  mutagenic call: inactive; negative
Test System: MOUSE LYMPHOMA, Strain/Indicator: L5178Y (TK+/TK-), Metabolic Activation: NONE, Method: SUSPENSION/PLATE
  mutagenic call: active; positive

## OCc1ccc2c3c(cccc13)-c1ccccc1-2
[3]
  mutagenic call: inactive; negative
[4]
  mutagenic call: inactive; negative

## CC[C@@]1(O)C[C@H](O[C@H]2C[C@H](N(C)C)[C@H](O[C@H]3C[C@H](O)[C@H](O[C@H]4C[C@H](O)[C@H](O)[C@H](C)O4)[C@H](C)O3)[C@H](C)O2)c2c(cc3c(c2O)C(=O)c2c(O)ccc(O)c2C3=O)[C@H]1C(=O)OC
Test System: AMES SALMONELLA TYPHIMURIUM, Strain/Indicator: TA97, Metabolic Activation: NONE, Method: STANDARD PLATE
  mutagenic call: inactive; negative
[3]
  mutagenic call: inactive; negative
Test System: AMES SALMONELLA TYPHIMURIUM, Strain/Indicator: TA102, Metabolic Activation: NONE, Method: STANDARD PLATE
  mutagenic call: active; positive
Test System: AMES SALMONELLA TYPHIMURIUM, Strain/Indicator: TA104, Metabolic Activation: NONE, Method: STANDARD PLATE
  mutagenic call: active; positive
Test System: AMES SALMONELLA TYPHIMURIUM, Strain/Indicator: TA2637, Metabolic Activation: NONE, Method: STANDARD PLATE
  mutagenic call: inactive; negative

## C=C(C#N)C(=O)OC
Test System: AMES SALMONELLA TYPHIMURIUM, Strain/Indicator: TA98, Metabolic Activation: HAMSTER, LIVER, S-9, AROCLOR 1254 (10%), Method: PREINCUBATION
  mutagenic call: inactive; negative
[1]
  mutagenic call: inactive; negative
Test System: AMES SALMONELLA TYPHIMURIUM, Strain/Indicator: TA98, Metabolic Activation: RAT, LIVER, S-9, AROCLOR 1254 (10%), Method: PREINCUBATION
  mutagenic call: inactive; negative
Test System: AMES SALMONELLA TYPHIMURIUM, Strain/Indicator: TA100, Metabolic Activation: HAMSTER, LIVER, S-9, AROCLOR 1254 (10%), Method: PREINCUBATION
  mutagenic call: active; positive
[2]
  mutagenic call: active; positive
Test System: AMES SALMONELLA TYPHIMURIUM, Strain/Indicator: TA100, Metabolic Activation: NONE, Method: SPOT TEST
  mutagenic call: active; positive
[4]
  mutagenic call: active; positive
Test System: AMES SALMONELLA TYPHIMURIUM, Strain/Indicator: TA100, Metabolic Activation: RAT, LIVER, S-9, AROCLOR 1254 (10%), Method: PREINCUBATION
  mutagenic call: active; positive
Test System: AMES SALMONELLA TYPHIMURIUM, Strain/Indicator: TA100, Metabolic Activation: RAT, LIVER, S-9, AROCLOR 1254, Method: SPOT TEST
  mutagenic call: active; positive
[5]
  mutagenic call: active; positive
Test System: AMES SALMONELLA TYPHIMURIUM, Strain/Indicator: TA1535, Metabolic Activation: HAMSTER, LIVER, S-9, AROCLOR 1254 (10%), Method: PREINCUBATION
  mutagenic call: inactive; negative
Test System: AMES SALMONELLA TYPHIMURIUM, Strain/Indicator: TA1535, Metabolic Activation: NONE, Method: PREINCUBATION
  mutagenic call: inactive; negative
Test System: AMES SALMONELLA TYPHIMURIUM, Strain/Indicator: TA1535, Metabolic Activation: RAT, LIVER, S-9, AROCLOR 1254 (10%), Method: PREINCUBATION
  mutagenic call: inactive; negative
Test System: AMES SALMONELLA TYPHIMURIUM, Strain/Indicator: TA1537, Metabolic Activation: HAMSTER, LIVER, S-9, AROCLOR 1254 (10%), Method: PREINCUBATION
  mutagenic call: inactive; negative
Test System: AMES SALMONELLA TYPHIMURIUM, Strain/Indicator: TA1537, Metabolic Activation: NONE, Method: PREINCUBATION
  mutagenic call: inactive; negative
Test System: AMES SALMONELLA TYPHIMURIUM, Strain/Indicator: TA1537, Metabolic Activation: RAT, LIVER, S-9, AROCLOR 1254 (10%), Method: PREINCUBATION
  mutagenic call: inactive; negative

## c1ccc2c(c1)cc1ccc3cccc4ncc2c1c34
Test System: AMES SALMONELLA TYPHIMURIUM, Strain/Indicator: TA98, Metabolic Activation: RAT, LIVER, S-9, AROCLOR 1254, Method: STANDARD PLATE
  mutagenic call: active; positive
[5]
  mutagenic call: active; positive
